These results are taken from patent US4038410A, “Nitroimidazole derivatives and process for the preparation thereof” (Schering Aktiengesellschaft, priority 1974, dated 1977).

Converted amounts (≈) assume the structure as drawn. Read-outs that look alike come from different tables or passages of the source.

Experiment [1] relates to Trichomonas vaginalis. In words: Minimum inhibitory concentration against Trichomonas vaginalis. It is filed as cell-based.
The subject of experiment [2] is Entamoeba histolytica. Kind of experiment: Minimum inhibitory concentration against Entamoeba histolytica. It is filed as cell-based. The following applies: Table II; for MIC: read-out: Minimum Inhibitory Concentration (MIC) in μg./ml. Against Entamoeba hist.
For experiment [3], the system named is Trichomonas vaginalis. Conditions: literature: C. Cosar, Arzneimittelforschung 16, 23 (1966); French Pat. No. 1,212,028; cited from earlier work.
Setting [4] is: Table II, read-out: Minimum Inhibitory Concentration (MIC) in μg./ml. Against Trich vag.
The mark [5] stands for this setting: Table I, read-out: Minimum Inhibitory Concentration (MIC) in μg./ml. Against Trich. vag.

For the molecule `Cc1nc(-c2ccco2)ncc1-c1ncc([N+](=O)[O-])n1C` [2-(2-Furyl)-4-methyl-5-(1-methyl-5-nitro-2-imidazolyl)-pyrimidine], the MIC in experiment [1] (setting [4]) was 0.4 µg/mL (≈ 1.4 µM).

With `Cc1c(-c2ncc([N+](=O)[O-])n2C)cnn1-c1ccc([N+](=O)[O-])cc1` [5-Methyl-4-(1-methyl-5-nitro-2-imidazolyl)-1-(4-nitrophenyl)-pyrazole], in experiment [1] (setting [4]), the MIC worked out at 0.4 µg/mL (≈ 1.22 µM).

“Mixture of 1,3-Dimethyl-4-(1-methyl-5-nitro-2-imidazolyl)-pyrazole and 1,5-Dimethyl-4-(1-methyl-5-nitro-2-imidazolyl)-pyrazole”: the “Minimum Inhibitory Concentration (MIC) in μg./ml. Against Trich vag.” value in experiment [1] (Table II) came to 0.1 µg/mL. Also, in experiment [2], the “Minimum Inhibitory Concentration (MIC) in μg./ml. Against Entamoeba hist.” value is 12.5 µg/mL.

Take `Cn1nccc1-c1ncc([N+](=O)[O-])n1C` [1-Methyl-5-(1-methyl-5-nitro-2-imidazolyl)-pyrazole]: in experiment [1] (setting [5]), the MIC turned out to be 0.05 µg/mL (≈ 0.241 µM).

Consider `Cc1[nH]ncc1-c1ncc([N+](=O)[O-])n1C` [3(5)-Methyl-4-(1-methyl-5-nitro-2-imidazolyl)-pyrazole], for which the results for the MIC in experiment [1] (setting [4]) and in experiment [2] were 0.2 µg/mL (≈ 0.965 µM) and 12.5 µg/mL (≈ 60.3 µM), respectively.

As for `Cc1c(-c2ncc([N+](=O)[O-])n2C)cnn1-c1ccc(Cl)cc1` [1-(4-Chlorophenyl)-5-methyl-4-(1-methyl-5-nitro-2-imidazolyl)-pyrazole], the MIC in experiment [1] (setting [4]) is 0.2 µg/mL (≈ 0.629 µM).

As for `CN(C)C=CC(=O)c1ncc([N+](=O)[O-])n1C` [3-Dimethylamino-1-(1-methyl-5-nitro-2-imidazolyl)-2-propenone], the MIC in experiment [1] (setting [5]) turned out to be 0.1 µg/mL (≈ 0.446 µM).

Consider `Cc1nn([N+](=O)[O-])cc1-c1ncc([N+](=O)[O-])n1C` [3-Methyl-4-(1-methyl-5-nitro-2-imidazolyl)-1-nitropyrazole], for which the MIC in experiment [1] (setting [4]) was determined as 0.4 µg/mL (≈ 1.59 µM); in experiment [2], 25 µg/mL (≈ 99.1 µM).

Take `Cn1c([N+](=O)[O-])cnc1-c1cc[nH]n1` [3-(1-Methyl-5-nitro-2-imidazolyl)-pyrazole]: the MIC in experiment [1] (setting [5]) amounted to 0.1 µg/mL (≈ 0.518 µM).

Take `Cc1c(-c2ncc([N+](=O)[O-])n2C)cnn1CCO` [2-[5-Methyl-4-(1-methyl-5-nitro-2-imidazolyl)-pyrazolyl]-ethanol]: the MIC in experiment [1] (setting [4]) worked out at 0.2 µg/mL (≈ 0.796 µM); in experiment [2] it was 50 µg/mL (≈ 199 µM).

For the molecule `Cc1c(-c2ncc([N+](=O)[O-])n2C)cnn1-c1ccccc1` [5-Methyl-4-(1-methyl-5-nitro-2-imidazolyl)-1-phenylpyrazole], the MIC in experiment [1] (setting [4]) came to 0.1 µg/mL (≈ 0.353 µM); in experiment [2] it was 12.5 µg/mL (≈ 44.1 µM).

`Cc1nc(N)ncc1-c1ncc([N+](=O)[O-])n1C` [4-Methyl-5-(1-methyl-5-nitro-2-imidazolyl)-pyrimidine-2-amine]: in experiment [1] (setting [4]), the MIC stood at 0.1 µg/mL (≈ 0.427 µM).

`Cc1ncc([N+](=O)[O-])n1CCO` [Metronidazole, 5-nitro-2-methyl-1-(2-hydroxyethyl)-imidazole, reference compound]: the MIC in experiment [1] (setting [5]) is 1.6 µg/mL (≈ 9.35 µM); in experiment [1] (setting [4]), 1.6 µg/mL (≈ 9.35 µM); in experiment [2], > 100 µg/mL. For the same molecule, in experiment [3], the “effective against Trichomonas vaginalis” value is reported as “effective”.

“Mixture of 5-Methyl-4-(1-methyl-5-nitro-2-imidazolyl)-isoxazole and 3-Methyl-4-(1-methyl-5-nitro-2-imidazolyl)-isoxazole”: the “Minimum Inhibitory Concentration (MIC) in μg./ml. Against Trich vag.” value in experiment [1] (Table II) stood at 0.2 µg/mL. Moreover, in experiment [2], the “Minimum Inhibitory Concentration (MIC) in μg./ml. Against Entamoeba hist.” value is 50 µg/mL.

With `COc1ccc(-n2ncc(-c3ncc([N+](=O)[O-])n3C)c2C)cc1` [1-p-Anisyl-5-methyl-4-(1-methyl-5-nitro-2-imidazolyl)-pyrazole], in experiment [1] (setting [4]), the MIC amounted to 0.2 µg/mL (≈ 0.638 µM).
